# From PubChem BioAssay AID1963447 (Molecular Pharmacology Branch, DTP, NCI, 2024)
# Test system: 885512-296-R-J2-PDC complex spheroid growth, % test/control
# Assay: Anticancer human tumor 885512-296-R-J2-PDC patient-derived breast carcinoma cell line growth inhibition [Asc]
# Conditions: for IC50: curve of first compound; for viability, T/C: stronger effect = lower value
# Summary of the method: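 Spheroid model: tumor line + HUVEC + hMSC. Single agents and combinations; top conc. at/near clinical Cmax (10 microM if undetermined), half-log dilutions. DMSO stocks at 800-fold test concentration.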
# [1] = second compound 0.1 µM, first compound 0.0316 µM
# [2] = second compound 0.1 µM, first compound 0.1 µM
# [3] = second compound 0.1 µM, first compound 0.316 µM
# [4] = second compound 0.1 µM, first compound 1 µM
# [5] = second compound 0.1 µM, first compound 3.16 µM
# [6] = second compound 0.1 µM, first compound 10 µM
# [7] = second compound 0.316 µM, first compound 0.0316 µM
# [8] = second compound 0.316 µM, first compound 0.1 µM
# [9] = second compound 0.316 µM, first compound 0.316 µM
# [10] = second compound 0.316 µM, first compound 1 µM
# [11] = second compound 0.316 µM, first compound 3.16 µM
# [12] = second compound 0.316 µM, first compound 10 µM
# [13] = second compound 1 µM, first compound 0.0316 µM
# [14] = second compound 1 µM, first compound 0.1 µM
# [15] = second compound 1 µM, first compound 0.316 µM
# [16] = second compound 1 µM, first compound 1 µM
# [17] = second compound 1 µM, first compound 3.16 µM
# [18] = second compound 1 µM, first compound 10 µM
# [19] = second compound 3.16 µM, first compound 0.0316 µM
# [20] = second compound 3.16 µM, first compound 0.1 µM
# [21] = second compound 10 µM, first compound 0.0316 µM
# [22] = second compound 10 µM, first compound 0.1 µM
# 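Note: spheroids exposed to compounds for seven days.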
# 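Throughout, for viability, T/C: 100% = DMSO vehicle control wells.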
smiles,measurement,setting,value
C#Cc1c(F)ccc2cc(O)cc(-c3ncc4c(N5CC6CCC(C5)N6)nc(OCC56CCCN5CC(F)C6)nc4c3F)c12 (stereo not given) + CNC(C)C(=O)NC1CN(S(=O)(=O)c2cccc(S(=O)(=O)N3CCC4CCC(C(=O)NC(c5ccccc5)c5ccccc5)N4C(=O)C(NC(=O)C(C)NC)C3)c2)CCC2CCC(C(=O)NC(c3ccccc3)c3ccccc3)N2C1=O,IC50,second compound 0.01 µM,> 10000 nM
same,IC50,second compound 0.0316 µM,> 10000 nM
same,IC50,second compound 0.1 µM,> 10000 nM
same,IC50,second compound 0.316 µM,> 10000 nM
same,IC50,second compound 1 µM,> 10000 nM
same,"viability, T/C","second compound 0.01 µM, first compound 0.0316 µM",94.5%
same,"viability, T/C","second compound 0.01 µM, first compound 0.1 µM",111%
same,"viability, T/C","second compound 0.01 µM, first compound 0.316 µM",83.5%
same,"viability, T/C","second compound 0.01 µM, first compound 1 µM",69.7%
same,"viability, T/C","second compound 0.01 µM, first compound 3.16 µM",89.9%
same,"viability, T/C","second compound 0.01 µM, first compound 10 µM",94.5%
same,"viability, T/C","second compound 0.0316 µM, first compound 0.0316 µM",102%
same,"viability, T/C","second compound 0.0316 µM, first compound 0.1 µM",104%
same,"viability, T/C","second compound 0.0316 µM, first compound 0.316 µM",96.6%
same,"viability, T/C","second compound 0.0316 µM, first compound 1 µM",110%
same,"viability, T/C","second compound 0.0316 µM, first compound 3.16 µM",108%
same,"viability, T/C","second compound 0.0316 µM, first compound 10 µM",91.5%
same,"viability, T/C",[1],102%
same,"viability, T/C",[2],97%
same,"viability, T/C",[3],109%
same,"viability, T/C",[4],99.4%
same,"viability, T/C",[5],108%
same,"viability, T/C",[6],86.9%
same,"viability, T/C",[7],112%
same,"viability, T/C",[8],109%
same,"viability, T/C",[9],104%
same,"viability, T/C",[10],112%
same,"viability, T/C",[11],107%
same,"viability, T/C",[12],86.7%
same,"viability, T/C",[13],107%
same,"viability, T/C",[14],108%
same,"viability, T/C",[15],116%
same,"viability, T/C",[16],105%
same,"viability, T/C",[17],105%
same,"viability, T/C",[18],94.6%
Cc1nc(N2CCC3(CC2)COC(C)C3N)c(CO)nc1Sc1ccnc(N)c1Cl (stereo not given) + CNC(C)C(=O)NC1CN(S(=O)(=O)c2cccc(S(=O)(=O)N3CCC4CCC(C(=O)NC(c5ccccc5)c5ccccc5)N4C(=O)C(NC(=O)C(C)NC)C3)c2)CCC2CCC(C(=O)NC(c3ccccc3)c3ccccc3)N2C1=O,IC50,second compound 0.01 µM,168 nM
same,IC50,second compound 0.0316 µM,237 nM
same,IC50,second compound 0.1 µM,201 nM
same,IC50,second compound 0.316 µM,277 nM
same,IC50,second compound 1 µM,270 nM
same,"viability, T/C","second compound 0.01 µM, first compound 0.00949 µM",90.9%
same,"viability, T/C","second compound 0.01 µM, first compound 0.03 µM",73.2%
same,"viability, T/C","second compound 0.01 µM, first compound 0.0949 µM",54%
same,"viability, T/C","second compound 0.01 µM, first compound 0.3 µM",45.3%
same,"viability, T/C","second compound 0.01 µM, first compound 0.949 µM",43.4%
same,"viability, T/C","second compound 0.01 µM, first compound 3 µM",38.7%
same,"viability, T/C","second compound 0.0316 µM, first compound 0.00949 µM",90.1%
same,"viability, T/C","second compound 0.0316 µM, first compound 0.03 µM",77%
same,"viability, T/C","second compound 0.0316 µM, first compound 0.0949 µM",59.3%
same,"viability, T/C","second compound 0.0316 µM, first compound 0.3 µM",47.3%
same,"viability, T/C","second compound 0.0316 µM, first compound 0.949 µM",43.1%
same,"viability, T/C","second compound 0.0316 µM, first compound 3 µM",39.5%
same,"viability, T/C","second compound 0.1 µM, first compound 0.00949 µM",102%
same,"viability, T/C","second compound 0.1 µM, first compound 0.03 µM",91.7%
same,"viability, T/C","second compound 0.1 µM, first compound 0.0949 µM",60.1%
same,"viability, T/C","second compound 0.1 µM, first compound 0.3 µM",46.3%
same,"viability, T/C","second compound 0.1 µM, first compound 0.949 µM",39.9%
same,"viability, T/C","second compound 0.1 µM, first compound 3 µM",39.9%
same,"viability, T/C","second compound 0.316 µM, first compound 0.00949 µM",120%
same,"viability, T/C","second compound 0.316 µM, first compound 0.03 µM",107%
same,"viability, T/C","second compound 0.316 µM, first compound 0.0949 µM",70.3%
same,"viability, T/C","second compound 0.316 µM, first compound 0.3 µM",50.4%
same,"viability, T/C","second compound 0.316 µM, first compound 0.949 µM",41.8%
same,"viability, T/C","second compound 0.316 µM, first compound 3 µM",38.9%
same,"viability, T/C","second compound 1 µM, first compound 0.00949 µM",114%
same,"viability, T/C","second compound 1 µM, first compound 0.03 µM",112%
same,"viability, T/C","second compound 1 µM, first compound 0.0949 µM",71.8%
same,"viability, T/C","second compound 1 µM, first compound 0.3 µM",52.7%
same,"viability, T/C","second compound 1 µM, first compound 0.949 µM",41.1%
same,"viability, T/C","second compound 1 µM, first compound 3 µM",38.7%
Cn1ncnc1[C@H]1c2n[nH]c(=O)c3cc(F)cc(c23)N[C@@H]1c1ccc(F)cc1 + Cc1c(S(C)(=O)=O)c(-c2cc(F)cc(N3CCN(c4ccc(NS(=O)(=O)c5ccc(NC(CCN6CCC(C(=O)OCCCP(=O)(O)O)CC6)CSc6ccccc6)c(S(=O)(=O)C(F)(F)F)c5)cc4)CC3)c2)c(-c2ccc(Cl)cc2)n1C(C)C,IC50,second compound 0.1 µM,17.2 nM
same,IC50,second compound 0.316 µM,26.4 nM
same,IC50,second compound 1 µM,17.2 nM
same,IC50,second compound 3.16 µM,21.5 nM
same,IC50,second compound 10 µM,28.7 nM
same,"viability, T/C","second compound 0.1 µM, first compound 0.000316 µM",85.5%
same,"viability, T/C","second compound 0.1 µM, first compound 0.001 µM",78.4%
same,"viability, T/C","second compound 0.1 µM, first compound 0.00316 µM",66.3%
same,"viability, T/C","second compound 0.1 µM, first compound 0.01 µM",53.1%
same,"viability, T/C",[1],47.5%
same,"viability, T/C",[2],29.1%
same,"viability, T/C","second compound 0.316 µM, first compound 0.000316 µM",105%
same,"viability, T/C","second compound 0.316 µM, first compound 0.001 µM",77.6%
same,"viability, T/C","second compound 0.316 µM, first compound 0.00316 µM",85.9%
same,"viability, T/C","second compound 0.316 µM, first compound 0.01 µM",58.5%
same,"viability, T/C",[7],54.2%
same,"viability, T/C",[8],26.6%
same,"viability, T/C","second compound 1 µM, first compound 0.000316 µM",87.1%
same,"viability, T/C","second compound 1 µM, first compound 0.001 µM",91.1%
same,"viability, T/C","second compound 1 µM, first compound 0.00316 µM",78.4%
same,"viability, T/C","second compound 1 µM, first compound 0.01 µM",55.3%
same,"viability, T/C",[13],44.1%
same,"viability, T/C",[14],27.9%
same,"viability, T/C","second compound 3.16 µM, first compound 0.000316 µM",88%
same,"viability, T/C","second compound 3.16 µM, first compound 0.001 µM",77.1%
same,"viability, T/C","second compound 3.16 µM, first compound 0.00316 µM",77.8%
same,"viability, T/C","second compound 3.16 µM, first compound 0.01 µM",66.2%
same,"viability, T/C",[19],41.5%
same,"viability, T/C",[20],27.9%
same,"viability, T/C","second compound 10 µM, first compound 0.000316 µM",120%
same,"viability, T/C","second compound 10 µM, first compound 0.001 µM",97.9%
same,"viability, T/C","second compound 10 µM, first compound 0.00316 µM",82.8%
same,"viability, T/C","second compound 10 µM, first compound 0.01 µM",73%
same,"viability, T/C",[21],47.2%
same,"viability, T/C",[22],27.9%
O=C(c1cc(Cc2n[nH]c(=O)c3ccccc23)ccc1F)N1CCN(C(=O)C2CC2)CC1 + Cc1c(S(C)(=O)=O)c(-c2cc(F)cc(N3CCN(c4ccc(NS(=O)(=O)c5ccc(NC(CCN6CCC(C(=O)OCCCP(=O)(O)O)CC6)CSc6ccccc6)c(S(=O)(=O)C(F)(F)F)c5)cc4)CC3)c2)c(-c2ccc(Cl)cc2)n1C(C)C,IC50,second compound 0.1 µM,4750 nM
same,IC50,second compound 0.316 µM,4350 nM
same,IC50,second compound 1 µM,3760 nM
same,IC50,second compound 3.16 µM,3670 nM
same,IC50,second compound 10 µM,3290 nM
same,"viability, T/C",[1],90.8%
same,"viability, T/C",[2],105%
same,"viability, T/C",[3],95.5%
same,"viability, T/C",[4],91%
same,"viability, T/C",[5],67.9%
same,"viability, T/C",[6],17.4%
same,"viability, T/C",[7],96.4%
same,"viability, T/C",[8],96.7%
same,"viability, T/C",[9],104%
same,"viability, T/C",[10],96.6%
same,"viability, T/C",[11],64.2%
same,"viability, T/C",[12],13.1%
same,"viability, T/C",[13],83.3%
same,"viability, T/C",[14],98.8%
same,"viability, T/C",[15],104%
same,"viability, T/C",[16],92%
same,"viability, T/C",[17],56.8%
same,"viability, T/C",[18],11.7%
same,"viability, T/C",[19],101%
same,"viability, T/C",[20],106%
same,"viability, T/C","second compound 3.16 µM, first compound 0.316 µM",99%
same,"viability, T/C","second compound 3.16 µM, first compound 1 µM",88.1%
same,"viability, T/C","second compound 3.16 µM, first compound 3.16 µM",55.7%
same,"viability, T/C","second compound 3.16 µM, first compound 10 µM",11.7%
same,"viability, T/C",[21],125%
same,"viability, T/C",[22],113%
same,"viability, T/C","second compound 10 µM, first compound 0.316 µM",97.5%
same,"viability, T/C","second compound 10 µM, first compound 1 µM",90.3%
same,"viability, T/C","second compound 10 µM, first compound 3.16 µM",47.5%
same,"viability, T/C","second compound 10 µM, first compound 10 µM",9.81%
